From ChEMBL document CHEMBL1138020, “Novel fibrinogen receptor antagonists. RGDF mimetics, derivatives of 4-(isoindoline-5-yl)amino-4-oxobutyric acid” (Bioorg Med Chem Lett, 2004) come the findings set out here.

Test [1] deals with T1, Integrin alpha-IIb/beta-3 (Homo sapiens, UniProt P05106+P08514). Put plainly: In vitro inhibition of FITC-labeled fibrinogen binding to alphaIIb-beta3 receptor of human platelets.
Test [2] has as its target T1, Integrin alpha-IIb/beta-3. Put plainly: In vitro binding affinity for FITC-labeled fibrinogen binding to alphaIIb-beta3 receptor of human platelets.
Test [3] is described as follows: In vitro inhibition of Collagen-induced platelet aggregation in canine platelet rich plasma.

T1 sequence (P05106 27-788 limits assumed): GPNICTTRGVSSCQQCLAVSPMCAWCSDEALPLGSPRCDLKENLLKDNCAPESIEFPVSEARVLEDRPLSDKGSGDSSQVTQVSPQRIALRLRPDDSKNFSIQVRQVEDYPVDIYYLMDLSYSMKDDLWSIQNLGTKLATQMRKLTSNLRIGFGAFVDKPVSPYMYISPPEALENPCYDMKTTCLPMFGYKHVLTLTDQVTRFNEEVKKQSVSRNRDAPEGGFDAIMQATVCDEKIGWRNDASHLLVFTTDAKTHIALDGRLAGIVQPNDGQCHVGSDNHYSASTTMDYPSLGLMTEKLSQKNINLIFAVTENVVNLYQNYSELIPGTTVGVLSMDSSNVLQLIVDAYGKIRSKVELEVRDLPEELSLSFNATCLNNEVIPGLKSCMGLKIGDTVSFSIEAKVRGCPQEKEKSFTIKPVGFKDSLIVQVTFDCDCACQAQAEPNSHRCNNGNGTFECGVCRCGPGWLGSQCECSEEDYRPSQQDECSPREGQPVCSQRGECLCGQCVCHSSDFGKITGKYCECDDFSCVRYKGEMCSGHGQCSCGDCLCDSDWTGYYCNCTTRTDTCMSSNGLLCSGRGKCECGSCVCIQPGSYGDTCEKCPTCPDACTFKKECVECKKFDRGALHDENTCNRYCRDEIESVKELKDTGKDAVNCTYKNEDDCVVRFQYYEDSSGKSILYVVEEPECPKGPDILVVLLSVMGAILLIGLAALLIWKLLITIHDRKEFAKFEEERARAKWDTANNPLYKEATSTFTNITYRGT
T1 sequence (P08514 32-887 limits assumed): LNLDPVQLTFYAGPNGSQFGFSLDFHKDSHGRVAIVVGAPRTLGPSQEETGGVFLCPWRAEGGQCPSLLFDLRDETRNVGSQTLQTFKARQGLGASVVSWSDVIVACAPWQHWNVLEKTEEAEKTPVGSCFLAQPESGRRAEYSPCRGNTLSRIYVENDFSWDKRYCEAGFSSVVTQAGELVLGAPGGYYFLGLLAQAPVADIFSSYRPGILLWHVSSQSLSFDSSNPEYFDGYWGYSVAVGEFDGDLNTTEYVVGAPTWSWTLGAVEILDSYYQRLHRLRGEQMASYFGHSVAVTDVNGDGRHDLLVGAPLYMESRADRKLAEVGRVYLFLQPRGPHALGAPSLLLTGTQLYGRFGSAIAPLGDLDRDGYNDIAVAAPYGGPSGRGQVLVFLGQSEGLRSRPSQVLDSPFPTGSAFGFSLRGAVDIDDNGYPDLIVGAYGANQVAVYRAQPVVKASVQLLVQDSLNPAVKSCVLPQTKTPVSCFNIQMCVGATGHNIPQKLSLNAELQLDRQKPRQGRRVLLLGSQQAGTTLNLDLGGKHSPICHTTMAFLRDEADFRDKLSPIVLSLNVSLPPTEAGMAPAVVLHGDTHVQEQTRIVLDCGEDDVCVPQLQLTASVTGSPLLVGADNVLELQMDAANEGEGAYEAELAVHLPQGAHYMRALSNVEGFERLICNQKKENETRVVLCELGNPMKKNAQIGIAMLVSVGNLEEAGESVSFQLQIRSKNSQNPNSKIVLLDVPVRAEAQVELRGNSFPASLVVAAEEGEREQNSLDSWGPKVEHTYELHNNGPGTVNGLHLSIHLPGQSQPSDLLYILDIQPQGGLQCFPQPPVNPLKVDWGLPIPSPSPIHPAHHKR
T1 sequence (P08514 891-1039 limits assumed): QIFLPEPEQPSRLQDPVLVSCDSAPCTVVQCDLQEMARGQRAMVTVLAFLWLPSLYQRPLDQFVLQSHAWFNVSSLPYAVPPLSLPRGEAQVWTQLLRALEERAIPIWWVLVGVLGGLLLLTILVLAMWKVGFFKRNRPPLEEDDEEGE

Compound `O=C(O)CCNC(=O)CCC(=O)Nc1ccc2c(c1)CNC2` yielded a 50% inhibitory concentration (IC50) in test [1] of 10 nM. The same compound showed a Ki in test [2] of 7.1 nM.

Turning to `N=C(N)c1ccc(NC(=O)CCC(=O)NCCC(=O)O)cc1`, the IC50 in test [3] stood at 1090 nM.

In test [1], `O=C(O)CC(NC(=O)CCC(=O)Nc1ccc2c(c1)CNC2)c1ccccc1` (stereo unspecified) displayed an IC50 of 8.3 nM. Moreover, the Ki in test [2] is 4.2 nM.

`N=C(N)c1ccc(NC(=O)CCC(=O)NC(CC(=O)O)c2ccccc2)cc1` (stereo unspecified) came in with an IC50 in test [3] of 290 nM.

In general, IC50 refers to the point on the concentration scale where inhibition reaches its midpoint. High values mean weaker potency in that assay, low ones greater potency in that assay. One may read the Ki as the equilibrium dissociation constant of an inhibitor or competing ligand from its target.
